How the values were obtained:
Assay type in all cases: in vivo
[1] = test system: barnyardgrass (Echinochloa crus-galli); assay: Test G Pre-Emergence Protocol; details: Echinochloa crus-galli, pre-emergence, 312 h, evaluated after 13 days; for pest or weed control at 15.625 g/ha: 15.625 g ai/ha, read-out: Barnyard grass damage rating (100=total damage to plant; 0=no damage to plant); for pest or weed control at 62.5 g/ha: 62.5 g ai/ha, 100=total damage to plant, 0=no damage to plant, read-out: plant damage rating, Barnyardgrass; for pest or weed control at 250 g/ha: 250 g ai/ha, read-out: Barnyardgrass damage rating (100=total damage to plant; 0=no damage to plant)
Summary of the method: (§1)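 Spraying took place one day after sowing, at 15.625, 62.5 or 250 g/ha, using an acetone/water (50:50) spray solution containing 0.5% Tween 20. Plants were kept under glasshouse conditions (24/16 °C, 14 h light, 65% humidity, watered twice daily), and injury was rated 0–100 at day 13.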

[2] = test system: corn (Zea mays); assay: Test G Pre-Emergence Protocol; details: Zea mays, pre-emergence, 312 h, evaluated after 13 days; for plant injury at 15.625 g/ha: 15.625 g ai/ha; for plant injury at 15.625 g/ha / plant injury at 250 g/ha: read-out: Corn damage rating (100=total damage to plant; 0=no damage to plant); for plant injury at 62.5 g/ha: 62.5 g ai/ha, 100=total damage to plant, 0=no damage to plant, read-out: plant damage rating, Corn; for plant injury at 250 g/ha: 250 g ai/ha
Summary of the method: as §1

[3] = test system: giant foxtail (Setaria faberi); assay: Test G Pre-Emergence Protocol; details: Setaria faberi, pre-emergence, 312 h, evaluated after 13 days; for pest or weed control at 15.625 g/ha: 15.625 g ai/ha; for pest or weed control at 15.625 g/ha / pest or weed control at 250 g/ha: read-out: Foxtail, Giant damage rating (100=total damage to plant; 0=no damage to plant); for pest or weed control at 62.5 g/ha: 62.5 g ai/ha, 100=total damage to plant, 0=no damage to plant, read-out: plant damage rating, Foxtail, Giant; for pest or weed control at 250 g/ha: 250 g ai/ha
Summary of the method: as §1

[4] = test system: ivy-leaved morning glory (Ipomoea hederacea); assay: Test G Pre-Emergence Protocol; details: Ipomoea, pre-emergence, 312 h, evaluated after 13 days; for pest or weed control at 15.625 g/ha: 15.625 g ai/ha, read-out: Morning-glory, Ivy-leaved damage rating (100=total damage to plant; 0=no damage to plant); for pest or weed control at 62.5 g/ha: 62.5 g ai/ha, 100=total damage to plant, 0=no damage to plant, read-out: plant damage rating, Morningglory, Ivy-leaved; for pest or weed control at 250 g/ha: 250 g ai/ha, read-out: Morningglory, Ivy-leaved damage rating (100=total damage to plant; 0=no damage to plant)
Summary of the method: as §1

[5] = test system: redroot pigweed (Amaranthus retroflexus); assay: Test G Pre-Emergence Protocol; details: Amaranthus retroflexus, pre-emergence, 312 h, evaluated after 13 days; for pest or weed control at 15.625 g/ha: 15.625 g ai/ha; for pest or weed control at 15.625 g/ha / pest or weed control at 250 g/ha: read-out: Pigweed, Redroot damage rating (100=total damage to plant; 0=no damage to plant); for pest or weed control at 62.5 g/ha: 62.5 g ai/ha, 100=total damage to plant, 0=no damage to plant, read-out: plant damage rating, Pigweed, Redroot; for pest or weed control at 250 g/ha: 250 g ai/ha
Summary of the method: as §1

[6] = test system: velvetleaf (Abutilon theophrasti); assay: Test G Pre-Emergence Protocol; details: Abutilon theophrasti, pre-emergence, 312 h, evaluated after 13 days; for pest or weed control at 15.625 g/ha: 15.625 g ai/ha; for pest or weed control at 15.625 g/ha / pest or weed control at 250 g/ha: read-out: Velvetleaf damage rating (100=total damage to plant; 0=no damage to plant); for pest or weed control at 62.5 g/ha: 62.5 g ai/ha, 100=total damage to plant, 0=no damage to plant, read-out: plant damage rating, Velvetleaf; for pest or weed control at 250 g/ha: 250 g ai/ha
Summary of the method: as §1

[7] = test system: barnyardgrass (Echinochloa crus-galli); assay: Test G Post-Emergence Protocol; details: Echinochloa crus-galli, post-emergence, 312 h; for pest or weed control at 15.625 g/ha: 15.625 g ai/ha, evaluated after 13 days (100=total damage to plant; 0=no damage to plant), read-out: Barnyardgrass damage rating; for pest or weed control at 62.5 g/ha: 62.5 g ai/ha, read-out: Barnyardgrass damage rating (100=total damage to plant; 0=no damage to plant); for pest or weed control at 62.5 g/ha / pest or weed control at 250 g/ha: evaluated after 13 days; for pest or weed control at 250 g/ha: 250 g ai/ha, read-out: damage to plant, Barnyardgrass (100=total damage to plant; 0=no damage to plant)
Summary of the method: (§2)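 Post-emergence herbicidal damage, scored visually 0–100 at 13 days. Application at 15.625, 62.5 or 250 g/ha onto 8-day-old plants grown under glasshouse control.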

[8] = test system: corn (Zea mays); assay: Test G Post-Emergence Protocol; details: Zea mays, post-emergence, 312 h; for plant injury at 15.625 g/ha: 15.625 g ai/ha, evaluated after 13 days (100=total damage to plant; 0=no damage to plant), read-out: Corn damage rating; for plant injury at 62.5 g/ha: 62.5 g ai/ha, read-out: Corn damage rating (100=total damage to plant; 0=no damage to plant); for plant injury at 62.5 g/ha / plant injury at 250 g/ha: evaluated after 13 days; for plant injury at 250 g/ha: 250 g ai/ha, read-out: damage to plant, Corn (100=total damage to plant; 0=no damage to plant)
Summary of the method: as §2

[9] = test system: giant foxtail (Setaria faberi); assay: Test G Post-Emergence Protocol; details: Setaria faberi, post-emergence, 312 h; for pest or weed control at 15.625 g/ha: 15.625 g ai/ha, evaluated after 13 days (100=total damage to plant; 0=no damage to plant), read-out: Foxtail, Giant damage rating; for pest or weed control at 62.5 g/ha: 62.5 g ai/ha, read-out: Foxtail, Giant damage rating (100=total damage to plant; 0=no damage to plant); for pest or weed control at 62.5 g/ha / pest or weed control at 250 g/ha: evaluated after 13 days; for pest or weed control at 250 g/ha: 250 g ai/ha, read-out: damage to plant, Foxtail, Giant (100=total damage to plant; 0=no damage to plant)
Summary of the method: as §2

[10] = test system: ivy-leaved morning glory (Ipomoea hederacea); assay: Test G Post-Emergence Protocol; details: Ipomoea, post-emergence, 312 h; for pest or weed control at 15.625 g/ha: 15.625 g ai/ha, evaluated after 13 days (100=total damage to plant; 0=no damage to plant), read-out: Morningglory, Ivy-leaved damage rating; for pest or weed control at 62.5 g/ha: 62.5 g ai/ha, read-out: Morningglory, Ivy-leaved damage rating (100=total damage to plant; 0=no damage to plant); for pest or weed control at 62.5 g/ha / pest or weed control at 250 g/ha: evaluated after 13 days; for pest or weed control at 250 g/ha: 250 g ai/ha, read-out: damage to plant, Morningglory, Ivy-leaved (100=total damage to plant; 0=no damage to plant)
Summary of the method: as §2

[11] = test system: redroot pigweed (Amaranthus retroflexus); assay: Test G Post-Emergence Protocol; details: Amaranthus retroflexus, post-emergence, 312 h; for pest or weed control at 15.625 g/ha: 15.625 g ai/ha, evaluated after 13 days (100=total damage to plant; 0=no damage to plant), read-out: Pigweed, Redroot damage rating; for pest or weed control at 62.5 g/ha: 62.5 g ai/ha, read-out: Pigweed, Redroot damage rating (100=total damage to plant; 0=no damage to plant); for pest or weed control at 62.5 g/ha / pest or weed control at 250 g/ha: evaluated after 13 days; for pest or weed control at 250 g/ha: 250 g ai/ha, read-out: damage to plant, Pigweed, Redroot (100=total damage to plant; 0=no damage to plant)
Summary of the method: as §2

[12] = test system: velvetleaf (Abutilon theophrasti); assay: Test G Post-Emergence Protocol; details: Abutilon theophrasti, post-emergence, 312 h; for pest or weed control at 15.625 g/ha: 15.625 g ai/ha, evaluated after 13 days (100=total damage to plant; 0=no damage to plant), read-out: Velvetleaf damage rating; for pest or weed control at 62.5 g/ha: 62.5 g ai/ha, read-out: Velvetleaf damage rating (100=total damage to plant; 0=no damage to plant); for pest or weed control at 62.5 g/ha / pest or weed control at 250 g/ha: evaluated after 13 days; for pest or weed control at 250 g/ha: 250 g ai/ha, read-out: damage to plant, Velvetleaf (100=total damage to plant; 0=no damage to plant)
Summary of the method: as §2

SMILES | pest or weed control at 15.625 g/ha [1] [%] | pest or weed control at 62.5 g/ha [1] [%] | pest or weed control at 250 g/ha [1] [%] | plant injury at 15.625 g/ha [2] [%] | plant injury at 62.5 g/ha [2] [%] | plant injury at 250 g/ha [2] [%] | pest or weed control at 15.625 g/ha [3] [%] | pest or weed control at 62.5 g/ha [3] [%] | pest or weed control at 250 g/ha [3] [%] | pest or weed control at 15.625 g/ha [4] [%] | pest or weed control at 62.5 g/ha [4] [%] | pest or weed control at 250 g/ha [4] [%] | pest or weed control at 15.625 g/ha [5] [%] | pest or weed control at 62.5 g/ha [5] [%] | pest or weed control at 250 g/ha [5] [%] | pest or weed control at 15.625 g/ha [6] [%] | pest or weed control at 62.5 g/ha [6] [%] | pest or weed control at 250 g/ha [6] [%] | pest or weed control at 15.625 g/ha [7] [%] | pest or weed control at 62.5 g/ha [7] [%] | further results
CN1C[C@@H](c2ccc(C(F)(F)F)cc2)[C@H](C(=O)Nc2cccc3c2CCC3)C1=O (racemic) [Compound 1624] | 0 | 0 | 80 | 0 | 0 | 0 | 20 | 60 | 80 | 0 | 0 | 0 | 0 | 0 | 20 | 0 | 0 | 10 | 0 | 20 | pest or weed control at 250 g/ha [7]: 70%; plant injury at 15.625 g/ha [8]: 0%; plant injury at 62.5 g/ha [8]: 10%; plant injury at 250 g/ha [8]: 10%; pest or weed control at 15.625 g/ha [9]: 10%; pest or weed control at 62.5 g/ha [9]: 80%; pest or weed control at 250 g/ha [9]: 80%; pest or weed control at 15.625 g/ha [10]: 10%; pest or weed control at 62.5 g/ha [10]: 20%; pest or weed control at 250 g/ha [10]: 20%; pest or weed control at 15.625 g/ha [11]: 0%; pest or weed control at 62.5 g/ha [11]: 30%; pest or weed control at 250 g/ha [11]: 20%; pest or weed control at 15.625 g/ha [12]: 0%; pest or weed control at 62.5 g/ha [12]: 10%; pest or weed control at 250 g/ha [12]: 10%
Cc1cc(NC(=O)[C@@H]2C(=O)N(C)C[C@H]2c2ccc(C(F)(F)F)cc2)[nH]n1 (racemic) [Compound 1626] | 0 | 0 | 0 | 0 | 0 | 0 | 0 | 0 | 0 | 0 | 0 | 0 | 0 | 0 | 0 | 0 | 0 | 0 | 0 | 0 | pest or weed control at 250 g/ha [7]: 0%; plant injury at 15.625 g/ha [8]: 0%; plant injury at 62.5 g/ha [8]: 0%; plant injury at 250 g/ha [8]: 0%; pest or weed control at 15.625 g/ha [9]: 0%; pest or weed control at 62.5 g/ha [9]: 0%; pest or weed control at 250 g/ha [9]: 0%; pest or weed control at 15.625 g/ha [10]: 0%; pest or weed control at 62.5 g/ha [10]: 0%; pest or weed control at 250 g/ha [10]: 0%; pest or weed control at 15.625 g/ha [11]: 0%; pest or weed control at 62.5 g/ha [11]: 0%; pest or weed control at 250 g/ha [11]: 0%; pest or weed control at 15.625 g/ha [12]: 0%; pest or weed control at 62.5 g/ha [12]: 0%; pest or weed control at 250 g/ha [12]: 0%

— US12077503B2, “Substituted cyclic amides and their use as herbicides” (FMC CORPORATION, priority 2015, dated 2024)
